The source of these data is patent US20230089524A1, “COMPOSITIONS FOR USE IN THE INHIBITION OF DIHYDROOROTATE DEHYDROGENASE” (OHIO STATE INNOVATION FOUNDATION, priority 2019, published 2023).

Where two headings read alike, the source gives them in different places.

One test deals with T1, h-DHODH (Homo sapiens, UniProt Q02127).
T1 construct: made in house
Briefly: DHODH enzymatic assay (DCIP reduction at 600 nm). Format: biochemical. Conditions: recombinant human enzyme, 25° C. Here is the method: DHODH Enzymatic Assay: DHODH activity was determined at 25° C. following the reduction of 2,6-dichloroindophenol sodium salt (DCIP) at 600 nm (ε=18 800 M^−1 cm^−1) on a spectrophotometer. The reaction medium used contained 50 mM Tris-HCl, pH 8.0, 0.1% Triton X-100, 0.1 mM LDHO, 0.025 mM CoQ1, and 0.06 mM DCIP. The reaction was started by addition of the enzyme. The inhibitory potency of the compounds was evaluated by measuring the initial velocity of the reaction either in the absence or in the presence of the compounds at the indicated concentrations. The DHODH enzyme used was the recombinant human enzyme prepared as previously described (Hélène Munier-Lehmann, et al., J. Med. Chem. 2015, 58:860-877).
(§1) Biological Activity. Cell proliferation assays were carried out using the MTS assay described herein using an AML cell line (i.e., OCI-AM L3) as described above. The assays were carried out in a blinded fashion. Assays were also carried out to assess the effect of representative disclosed compounds on DHODH activity.

The next test relates to OCI-AML3 cell line. The test is described as follows: MTS assay for cell growth/viability. Format: cell-based. Conditions: Homo sapiens. Here is the method:
MTS assay for cell growth/viability: Mitochondrial activity was measured to determine cell proliferation using an MTS assay (tetrazolium dye 3-[4,5-dimethylthiazol-2-yl]-2,5-diphenyl-tetrazolium bromide). Metabolically active cells convert MTS tetrazolium salt into a purple formazan product that is soluble in tissue culture medium. The amount of formazan measured at 490 nm absorbance is proportional to the number of proliferating cells. MTS assays in AML cell lines were carried out with 20K cells plated per well in 96-well plates with Cpd3 or brequinar in a dose series ranging from 0.0001 to 10 μM. Triplicate wells were set up for each condition. At 96 hours, the MTS reagent was added and after approximately 4 hours the plates were read in a spectrophotometer.
as §1
(In general: Tetrazolium assays rely on reduction of a dye to a coloured formazan, in cell work by metabolically active cells.)

[1] abbreviates: OCI-AML-3, 96 hours, read-out: OCI-AML3 cell line IC50.
[2] abbreviates: OCI-AML-3, read-out: growth arrest in the OCI-AML3 cell line, IC50.

T1 sequence (Q02127 whole entry): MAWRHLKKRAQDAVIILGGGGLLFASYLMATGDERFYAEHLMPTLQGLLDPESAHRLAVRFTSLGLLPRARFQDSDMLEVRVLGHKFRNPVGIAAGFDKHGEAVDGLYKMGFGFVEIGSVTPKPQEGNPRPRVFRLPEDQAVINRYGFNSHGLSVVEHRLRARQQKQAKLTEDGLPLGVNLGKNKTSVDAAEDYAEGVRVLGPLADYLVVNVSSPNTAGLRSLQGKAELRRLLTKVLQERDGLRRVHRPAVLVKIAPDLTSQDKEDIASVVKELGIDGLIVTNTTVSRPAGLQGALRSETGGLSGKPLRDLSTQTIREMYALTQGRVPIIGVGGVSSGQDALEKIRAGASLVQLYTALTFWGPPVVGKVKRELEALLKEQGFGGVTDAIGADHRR

As a reminder, the IC50 is the point on the concentration scale where inhibition reaches its midpoint. On to `CCOc1ccc(-c2csc(-c3cc(C(=O)O)c4cc(F)ccc4n3)c2)cc1` [Cpd1, 2-(4-(4-ethoxyphenyl)thiophen-2-yl)-6-fluoroquinoline-4-carboxylic acid], for which the IC50 at h-DHODH was 58 nM; with OCI-AML3 cell line (setting [1]) it was 413 nM; in the test on OCI-AML3 cell line (setting [2]) it was 410 to 790 nM.

In the case of `CCOc1ccc(-c2csc(-c3cc(C(=O)O)c4cc(F)ccc4n3)n2)cc1` [Cpd5, 2-(4-(4-ethoxyphenyl)thiazol-2-yl)-6-fluoroquinoline-4-carboxylic acid], the IC50 at h-DHODH came out at 524 nM; in the test on OCI-AML3 cell line (setting [1]), 7410 nM.

As to `CCOc1ccc(-c2nc(-c3cc(C(=O)O)c4cc(F)ccc4n3)cs2)cc1` [Cpd7], the concentration for half-maximal inhibition (IC50) on h-DHODH is 85 nM; in the test with OCI-AML3 cell line (setting [1]), 4920 nM.

For `CCOc1ccc(-c2ccc(-c3cc(C(=O)O)c4cc(F)ccc4n3)s2)cc1` [Cpd2, 2-(5-(4-ethoxyphenyl)thiophen-2-yl)-6-fluoroquinoline-4-carboxylic acid], the figures for the IC50 at h-DHODH, with OCI-AML3 cell line (setting [1]) and in the test on OCI-AML3 cell line (setting [2]) were 212 nM, 790 nM and 410 to 790 nM, respectively.

As to `CCOc1cccc(-c2csc(-c3cc(C(=O)O)c4cc(F)ccc4n3)c2)c1` [Cpd3, 2-(4-(3-ethoxyphenyl)thiophen-2-yl)-6-fluoroquinoline-4-carboxylic acid], the IC50 stood at 200 nM at h-DHODH and 10900 nM in the test with OCI-AML3 cell line (setting [1]).

Take `CCOc1ccc(-c2cnc(-c3cc(C(=O)O)c4cc(F)ccc4n3)s2)cc1` [Cpd6, 2-(5-(4-ethoxyphenyl)thiazol-2-yl)-6-fluoroquinoline-4-carboxylic acid]: the IC50 at h-DHODH was 13900 nM; with OCI-AML3 cell line (setting [1]), greater than 10000 nM.

Regarding `CCOc1cccc(-c2ccc(-c3cc(C(=O)O)c4cc(F)ccc4n3)s2)c1` [Cpd4, 2-(5-(3-ethoxyphenyl)thiophen-2-yl)-6-fluoroquinoline-4-carboxylic acid], the IC50 on h-DHODH worked out at 223 nM; in the test with OCI-AML3 cell line (setting [1]), 3350 nM.

For `CCOc1ccc(-c2ncc(-c3cc(C(=O)O)c4cc(F)ccc4n3)s2)cc1` [Cpd8, 2-(2-(4-ethoxyphenyl)thiazol-5-yl)-6-fluoroquinoline-4-carboxylic acid], the IC50 at h-DHODH is 472 nM; in the test with OCI-AML3 cell line (setting [1]) it was greater than 10000 nM.
